Like-named read-outs stand apart in the source and are kept apart here. Marks after values point to notes of the source that are not given here.
What was measured:
Q-T interval = conditions: single oral dose 5, 10, and 15 mg/kg
EphA1 = EphA1 (Homo sapiens, UniProt P21709); assay: Tyrosine kinase inhibition; format: biochemical
[1] = 28-day repeated dose toxicity; format: in vivo, Beagle dogs
ABL1 = ABL1 (Homo sapiens, UniProt P00519); assay: Tyrosine kinase inhibition; format: biochemical
EGFR(T790M /L828R) = EGFR(T790M /L828R) (Homo sapiens, UniProt P00533, T790M); assay: Tyrosine kinase inhibition; format: biochemical
[2] = system: human esophageal cancer ECA-109 tumors; assay: ECA-109 tumors in nude mice; format: in vivo
FMS = FMS (Homo sapiens, UniProt P07333); assay: Tyrosine kinase inhibition; format: biochemical
[3] = Tissue distribution in rats; format: in vivo; conditions: for time of distribution peak: intragastric
KDR = KDR (Homo sapiens, UniProt P35968); assay: Tyrosine kinase inhibition; format: biochemical
KDR, sequence (P35968 20-1356): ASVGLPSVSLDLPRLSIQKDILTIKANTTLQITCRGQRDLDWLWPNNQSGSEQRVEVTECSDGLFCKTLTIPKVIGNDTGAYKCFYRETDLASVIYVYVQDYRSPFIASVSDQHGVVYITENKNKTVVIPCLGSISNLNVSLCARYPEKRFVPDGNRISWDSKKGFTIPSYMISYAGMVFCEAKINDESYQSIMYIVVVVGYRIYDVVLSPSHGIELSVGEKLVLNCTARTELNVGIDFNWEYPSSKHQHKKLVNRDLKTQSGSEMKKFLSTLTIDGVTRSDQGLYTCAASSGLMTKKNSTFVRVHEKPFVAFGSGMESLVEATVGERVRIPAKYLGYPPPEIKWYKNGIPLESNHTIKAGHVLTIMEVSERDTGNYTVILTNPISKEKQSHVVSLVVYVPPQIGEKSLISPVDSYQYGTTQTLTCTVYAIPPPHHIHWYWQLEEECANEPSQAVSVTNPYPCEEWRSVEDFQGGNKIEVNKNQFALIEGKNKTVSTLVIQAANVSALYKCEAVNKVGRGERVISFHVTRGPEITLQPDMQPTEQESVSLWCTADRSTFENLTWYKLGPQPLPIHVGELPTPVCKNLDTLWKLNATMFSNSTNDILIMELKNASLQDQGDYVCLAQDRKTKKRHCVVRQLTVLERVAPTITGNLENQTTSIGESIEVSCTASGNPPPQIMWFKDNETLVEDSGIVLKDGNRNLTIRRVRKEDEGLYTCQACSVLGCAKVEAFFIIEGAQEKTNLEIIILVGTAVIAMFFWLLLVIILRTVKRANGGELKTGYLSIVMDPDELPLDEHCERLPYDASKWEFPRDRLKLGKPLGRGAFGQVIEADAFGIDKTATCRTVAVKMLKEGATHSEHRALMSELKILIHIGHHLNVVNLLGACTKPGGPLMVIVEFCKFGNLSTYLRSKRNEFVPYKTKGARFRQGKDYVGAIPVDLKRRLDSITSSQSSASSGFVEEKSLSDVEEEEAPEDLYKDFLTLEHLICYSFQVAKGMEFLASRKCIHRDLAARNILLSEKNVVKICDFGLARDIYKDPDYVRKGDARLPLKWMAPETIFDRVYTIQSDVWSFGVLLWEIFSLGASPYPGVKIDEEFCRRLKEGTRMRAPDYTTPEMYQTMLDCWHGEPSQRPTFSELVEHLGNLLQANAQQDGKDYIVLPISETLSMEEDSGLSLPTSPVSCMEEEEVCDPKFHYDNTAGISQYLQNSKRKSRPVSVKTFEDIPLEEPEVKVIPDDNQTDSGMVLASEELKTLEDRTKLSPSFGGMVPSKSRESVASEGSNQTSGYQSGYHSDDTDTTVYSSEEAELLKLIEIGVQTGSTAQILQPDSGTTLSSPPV

RON = RON (Homo sapiens, UniProt Q04912); assay: Tyrosine kinase inhibition; format: biochemical
RON, sequence (Q04912 25-1400): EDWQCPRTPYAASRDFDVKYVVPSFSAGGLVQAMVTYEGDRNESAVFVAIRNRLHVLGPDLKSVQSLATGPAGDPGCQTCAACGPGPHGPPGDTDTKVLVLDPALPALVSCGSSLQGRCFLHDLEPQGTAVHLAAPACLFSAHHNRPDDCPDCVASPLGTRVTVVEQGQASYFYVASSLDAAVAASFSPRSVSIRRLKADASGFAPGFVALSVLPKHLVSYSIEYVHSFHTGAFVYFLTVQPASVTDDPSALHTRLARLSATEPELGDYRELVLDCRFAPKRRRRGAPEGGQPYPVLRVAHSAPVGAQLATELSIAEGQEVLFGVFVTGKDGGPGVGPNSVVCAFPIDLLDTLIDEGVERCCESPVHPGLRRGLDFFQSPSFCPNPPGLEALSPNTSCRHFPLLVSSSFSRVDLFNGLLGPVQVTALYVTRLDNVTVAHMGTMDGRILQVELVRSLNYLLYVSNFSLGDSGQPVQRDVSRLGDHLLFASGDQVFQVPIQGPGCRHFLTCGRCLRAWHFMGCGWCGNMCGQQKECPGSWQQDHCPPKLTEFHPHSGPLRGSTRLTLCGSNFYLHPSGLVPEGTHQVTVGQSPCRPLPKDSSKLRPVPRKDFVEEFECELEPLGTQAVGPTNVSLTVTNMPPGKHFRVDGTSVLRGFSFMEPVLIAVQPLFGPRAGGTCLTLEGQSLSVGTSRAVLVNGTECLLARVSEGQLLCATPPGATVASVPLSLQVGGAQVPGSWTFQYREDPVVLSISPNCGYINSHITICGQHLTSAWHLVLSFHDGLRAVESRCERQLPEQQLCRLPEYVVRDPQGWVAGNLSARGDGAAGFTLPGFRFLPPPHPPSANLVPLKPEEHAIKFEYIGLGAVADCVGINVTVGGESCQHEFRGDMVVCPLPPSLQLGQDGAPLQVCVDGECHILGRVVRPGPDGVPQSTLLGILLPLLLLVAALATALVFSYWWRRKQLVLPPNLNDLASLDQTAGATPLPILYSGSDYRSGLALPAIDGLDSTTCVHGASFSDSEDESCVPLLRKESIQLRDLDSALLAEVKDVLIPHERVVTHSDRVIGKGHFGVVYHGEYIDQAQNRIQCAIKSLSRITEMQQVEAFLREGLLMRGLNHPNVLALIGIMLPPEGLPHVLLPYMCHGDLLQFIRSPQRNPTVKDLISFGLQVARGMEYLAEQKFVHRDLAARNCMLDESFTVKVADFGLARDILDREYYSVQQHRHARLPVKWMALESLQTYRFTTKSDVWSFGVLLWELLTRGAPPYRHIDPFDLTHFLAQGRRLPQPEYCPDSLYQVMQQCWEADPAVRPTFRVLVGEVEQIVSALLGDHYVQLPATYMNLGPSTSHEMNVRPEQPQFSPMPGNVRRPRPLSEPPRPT

Plasma protein binding = format: in vitro ADME; conditions: mice
HUVEC cells = conditions: 50 ng/mL VEGF165
[4] = system: human gastric cancer SGC-7901 tumors; assay: SGC-7901 tumors in nude mice; format: in vivo
Text: (§1) was higher than that of vandetanib .
as §1
Table S16. Efficacy of HA121-28 on human gastric cancer SGC-7901 tumors

HER-2 = HER-2 (Homo sapiens, UniProt P04626); assay: Tyrosine kinase inhibition; format: biochemical; conditions: read-out: IC50, HER2
HER-2, sequence (P04626 23-1255): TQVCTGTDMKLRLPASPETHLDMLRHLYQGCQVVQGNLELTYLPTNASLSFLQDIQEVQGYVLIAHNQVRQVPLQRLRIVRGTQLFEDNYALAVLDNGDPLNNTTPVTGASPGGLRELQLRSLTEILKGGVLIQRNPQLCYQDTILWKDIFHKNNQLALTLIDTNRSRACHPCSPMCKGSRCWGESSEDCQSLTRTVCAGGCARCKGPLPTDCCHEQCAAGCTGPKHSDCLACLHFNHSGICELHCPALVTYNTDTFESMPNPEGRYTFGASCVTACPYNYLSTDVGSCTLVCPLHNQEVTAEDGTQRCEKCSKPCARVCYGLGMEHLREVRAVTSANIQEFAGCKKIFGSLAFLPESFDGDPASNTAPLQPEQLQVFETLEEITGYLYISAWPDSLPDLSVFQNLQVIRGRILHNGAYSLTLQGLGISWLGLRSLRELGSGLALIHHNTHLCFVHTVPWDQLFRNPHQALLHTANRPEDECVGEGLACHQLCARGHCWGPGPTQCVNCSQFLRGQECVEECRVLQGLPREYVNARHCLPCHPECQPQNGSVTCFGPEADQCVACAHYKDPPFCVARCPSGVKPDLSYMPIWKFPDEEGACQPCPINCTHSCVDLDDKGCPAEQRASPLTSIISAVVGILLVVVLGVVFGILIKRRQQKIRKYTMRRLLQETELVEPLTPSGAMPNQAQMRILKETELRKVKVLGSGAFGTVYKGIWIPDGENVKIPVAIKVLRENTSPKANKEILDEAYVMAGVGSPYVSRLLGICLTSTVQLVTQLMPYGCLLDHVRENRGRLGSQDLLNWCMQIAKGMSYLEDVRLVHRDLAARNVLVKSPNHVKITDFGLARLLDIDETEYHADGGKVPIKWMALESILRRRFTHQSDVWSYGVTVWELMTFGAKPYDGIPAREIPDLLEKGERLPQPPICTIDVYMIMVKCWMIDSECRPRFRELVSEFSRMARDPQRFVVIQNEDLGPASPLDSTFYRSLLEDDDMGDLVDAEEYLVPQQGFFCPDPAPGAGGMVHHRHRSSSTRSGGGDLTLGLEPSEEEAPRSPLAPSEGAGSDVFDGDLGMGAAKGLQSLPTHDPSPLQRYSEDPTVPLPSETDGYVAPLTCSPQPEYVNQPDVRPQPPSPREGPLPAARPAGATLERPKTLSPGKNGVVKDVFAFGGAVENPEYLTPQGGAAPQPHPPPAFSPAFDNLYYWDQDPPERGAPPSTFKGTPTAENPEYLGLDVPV

Metabolites in plasma = conditions: rats
KYSE-150 cells = assay: Tumor cell proliferation in vitro; format: cell-based, human
Rat plasma kinetics = format: in vivo
A431 cells = assay: Tumor cell proliferation in vitro; format: cell-based, human; conditions: A431; read-out: IC50, proliferation
SRC = SRC (Homo sapiens, UniProt P12931); assay: Tyrosine kinase inhibition; format: biochemical
HT29 cells = assay: Tumor cell proliferation in vitro; format: cell-based
HCT116 cells = assay: Tumor cell proliferation in vitro; format: cell-based
[5] = system: human melanoma A375 tumors; assay: A375 tumors in nude mice; format: in vivo
MDA-MB-231 cells = assay: Tumor cell proliferation in vitro; format: cell-based
A375 cells = assay: Tumor cell proliferation in vitro; format: cell-based, human

ABL1, sequence (P00519 whole entry): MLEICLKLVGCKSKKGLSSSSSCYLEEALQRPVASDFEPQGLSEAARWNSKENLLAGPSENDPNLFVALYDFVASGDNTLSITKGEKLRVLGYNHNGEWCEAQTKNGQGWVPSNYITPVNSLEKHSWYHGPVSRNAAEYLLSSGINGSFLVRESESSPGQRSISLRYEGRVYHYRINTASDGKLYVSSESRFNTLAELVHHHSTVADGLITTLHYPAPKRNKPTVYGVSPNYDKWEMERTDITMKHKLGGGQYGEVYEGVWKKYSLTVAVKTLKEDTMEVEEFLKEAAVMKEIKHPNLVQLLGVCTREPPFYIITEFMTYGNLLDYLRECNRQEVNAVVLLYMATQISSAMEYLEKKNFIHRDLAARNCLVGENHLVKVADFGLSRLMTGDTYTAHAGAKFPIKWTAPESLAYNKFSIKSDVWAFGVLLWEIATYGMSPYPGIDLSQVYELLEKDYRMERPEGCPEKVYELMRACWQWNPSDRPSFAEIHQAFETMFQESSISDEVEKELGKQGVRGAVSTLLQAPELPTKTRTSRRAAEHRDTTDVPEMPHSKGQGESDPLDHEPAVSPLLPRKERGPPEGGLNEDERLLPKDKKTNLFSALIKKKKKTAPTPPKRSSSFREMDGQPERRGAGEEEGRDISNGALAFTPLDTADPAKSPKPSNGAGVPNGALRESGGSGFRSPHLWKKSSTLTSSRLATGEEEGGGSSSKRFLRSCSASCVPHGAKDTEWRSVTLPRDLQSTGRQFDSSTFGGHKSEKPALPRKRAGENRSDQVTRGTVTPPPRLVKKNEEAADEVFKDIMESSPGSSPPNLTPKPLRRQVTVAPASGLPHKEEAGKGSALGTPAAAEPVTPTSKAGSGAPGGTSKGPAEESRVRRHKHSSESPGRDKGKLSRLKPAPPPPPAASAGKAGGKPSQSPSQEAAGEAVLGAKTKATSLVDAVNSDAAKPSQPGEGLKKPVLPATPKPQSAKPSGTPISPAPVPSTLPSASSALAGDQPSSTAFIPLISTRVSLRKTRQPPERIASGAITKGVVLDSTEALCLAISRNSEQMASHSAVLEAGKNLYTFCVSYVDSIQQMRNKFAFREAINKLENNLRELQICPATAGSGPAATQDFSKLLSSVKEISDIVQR

COc1cc2c(Nc3ccc(Br)cc3F)ncnc2cc1OCCCCN(C)C.Cl.Cl [HA121-28, N-(4-bromo-2-fluorophenyl)-7-(4-(dimethylamino)butoxy)-6-methoxy quinazolin-4-amine dihydrochloride]
Q-T interval and corrected Q-T interval (Q-T interval): mild prolongation | IC50 (EphA1): 0.0869 µM | no observed adverse effect level (NOAEL) ([1]; 28 d, Beagle dog): 12 mg/kg | highest non-severely toxic dose (HNSTD) ([1]; oral, four consecutive weeks): 12 mg/kg | IC50 (ABL1): 0.153 µM | IC50 (EGFR(T790M /L828R)): 0.166 µM | RTV ±SD ([2]; 12.5 mg/kg): 7.0±2.8 | T/C ([2]; 12.5 mg/kg): 68.6% | Terminal Tumor Volume ([2]; 12.5 mg/kg): 1,684.6±1,034.3 mm^3 | RTV ±SD ([2]; 25 mg/kg): 3.1±1.6 | T/C ([2]; 25 mg/kg): 29.8% | Terminal Tumor Volume ([2]; 25 mg/kg): 693.5±538.6*^▲ mm^3 | RTV ±SD ([2]; 50 mg/kg): 2.2±0.4 | T/C ([2]; 50 mg/kg): 21.6% | Terminal Tumor Volume ([2]; 50 mg/kg): 491.8±77.4** mm^3 | IC50 (FMS): 2.91 µM | content at 72 h post-dose as fraction of distribution peak ([3]; adrenal glands): 1/8 | tissue AUC0-72h exposure relative to plasma ([3]; bone marrow): ≈ 1.3 times plasma | tissue AUC0-72h exposure relative to plasma ([3]; brain, adipose tissue, muscles): 3~9 times plasma | tissue AUC0-72h exposure relative to plasma ([3]; liver, kidneys, ovaries): ≈ 100 times plasma | time of distribution peak ([3]; liver, stomach, intestines): 0.5 h | time of distribution peak ([3]; most tissues): 4 h | tissue AUC0-72h exposure relative to plasma ([3]; spleen, lungs, adrenal glands): ≈ 200 times plasma | time of distribution peak ([3]; testes): 24 h | content at 72 h post-dose as fraction of distribution peak ([3]; uterus): 1/5 | tissue AUC0-72h exposure relative to plasma ([3]; uterus, testes, thymus, intestines, thyroid, heart, stomach): 20~60 times plasma | IC50 (KDR): 0.0357 µM | IC50 (RON): > 10 µM | plasma protein binding rate (Plasma protein binding): 97.2±0.266% | IC50 (HUVEC cells): 0.0654 µM | RTV ±SD ([4]; 25 mg/kg): 7.2±1.0 | T/C ([4]; 25 mg/kg): 45.3% | Terminal Tumor Volume ([4]; 25 mg/kg): 1424.3±410.0** mm^3 | RTV ±SD ([4]; 50 mg/kg): 2.0±1.1 | T/C ([4]; 50 mg/kg): 12.8% | Terminal Tumor Volume ([4]; 50 mg/kg): 478.5±307.8** mm^3 | RTV ±SD ([4]; 75 mg/kg): 1.2±0.3 | T/C ([4]; 75 mg/kg): 7.6% | Terminal Tumor Volume ([4]; 75 mg/kg): 288.9±162.6** mm^3 | IC50 (HER-2): 0.042 µM | number of metabolites found in plasma (Metabolites in plasma): 7 | IC50 (KYSE-150 cells; KYSE-150, metabolite comparison, read-out: IC50): 1.08 µM | IC50 (KYSE-150 cells; KYSE-150, read-out: IC50): 1.08 ± 0.22 µM | IC50 (KYSE-150 cells; KYSE-150, read-out: IC50, proliferation): 1.08 ± 0.22 µM | AUC0-96h (Rat plasma kinetics; 7 consecutive days (10 mg/kg)): 8.42 ± 1.72 µg·h/mL | AUC0-∞ (Rat plasma kinetics; 7 consecutive days (10 mg/kg)): 9.69 ± 2.31 µg·h/mL | CL (Rat plasma kinetics; 7 consecutive days (10 mg/kg)): 2.36 ± 0.392 L/h/kg | Cmax (Rat plasma kinetics; 7 consecutive days (10 mg/kg)): 0.284 ± 0.0568 µg/mL | MRT0-∞ (Rat plasma kinetics; 7 consecutive days (10 mg/kg)): 40.0 ± 7.30 h | Tmax (Rat plasma kinetics; 7 consecutive days (10 mg/kg)): 6.00 ± 0.00 h | Vd (Rat plasma kinetics; 7 consecutive days (10 mg/kg)): 110 ± 24.9 L/kg | t1/2 (Rat plasma kinetics; 7 consecutive days (10 mg/kg)): 32.9 ± 7.77 h | AUC0-96h (Rat plasma kinetics; high dose (20 mg/kg)): 6.46 ± 0.849 µg·h/mL | AUC0-∞ (Rat plasma kinetics; high dose (20 mg/kg)): 6.76 ± 1.04 µg·h/mL | CL (Rat plasma kinetics; high dose (20 mg/kg)): 3.02 ± 0.483 L/h/kg | Cmax (Rat plasma kinetics; high dose (20 mg/kg)): 0.288 ± 0.0385 µg/mL | MRT0-96h (Rat plasma kinetics; high dose (20 mg/kg)): 22.8 ± 2.85 h | MRT0-∞ (Rat plasma kinetics; high dose (20 mg/kg)): 27.3 ± 5.24 h | Tmax (Rat plasma kinetics; high dose (20 mg/kg)): 5.00 ± 1.55 h | Vd (Rat plasma kinetics; high dose (20 mg/kg)): 96.8 ± 8.19 L/kg | t1/2 (Rat plasma kinetics; high dose (20 mg/kg)): 22.8 ± 5.00 h | AUC0-96h (Rat plasma kinetics; intravenous (5 mg/kg)): 1.44 ± 0.214 µg·h/mL | AUC0-∞ (Rat plasma kinetics; intravenous (5 mg/kg)): 1.47 ± 0.232 µg·h/mL | C5min (Rat plasma kinetics; intravenous (5 mg/kg)): 246 ± 43.1 ng/mL | CL (Rat plasma kinetics; intravenous (5 mg/kg)): 3.47 ± 0.528 L/h/kg | MRT0-96h (Rat plasma kinetics; intravenous (5 mg/kg)): 17.2 ± 1.68 h | MRT0-∞ (Rat plasma kinetics; intravenous (5 mg/kg)): 19.0 ± 2.82 h | Vd (Rat plasma kinetics; intravenous (5 mg/kg)): 90.9 ± 12.3 L/kg | t1/2 (Rat plasma kinetics; intravenous (5 mg/kg)): 18.5 ± 3.86 h | AUC0-96h (Rat plasma kinetics; low dose (5 mg/kg)): 1.35 ± 0.419 µg·h/mL | AUC0-∞ (Rat plasma kinetics; low dose (5 mg/kg)): 1.39 ± 0.438 µg·h/mL | CL (Rat plasma kinetics; low dose (5 mg/kg)): 3.91 ± 1.19 L/h/kg | Cmax (Rat plasma kinetics; low dose (5 mg/kg)): 0.0587 ± 0.0127 µg/mL | MRT0-96h (Rat plasma kinetics; low dose (5 mg/kg)): 19.2 ± 2.41 h | MRT0-∞ (Rat plasma kinetics; low dose (5 mg/kg)): 21.5 ± 3.23 h | Tmax (Rat plasma kinetics; low dose (5 mg/kg)): 5.00 ± 1.10 h | Vd (Rat plasma kinetics; low dose (5 mg/kg)): 93.5 ± 15.9 L/kg | t1/2 (Rat plasma kinetics; low dose (5 mg/kg)): 17.4 ± 3.52 h | AUC0-96h (Rat plasma kinetics; medium dose (10 mg/kg)): 3.2 ± 0.629 µg·h/mL | AUC0-∞ (Rat plasma kinetics; medium dose (10 mg/kg)): 3.3 ± 0.696 µg·h/mL | CL (Rat plasma kinetics; medium dose (10 mg/kg)): 3.15 ± 0.695 L/h/kg | Cmax (Rat plasma kinetics; medium dose (10 mg/kg)): 0.147 ± 0.0266 µg/mL | MRT0-96h (Rat plasma kinetics; medium dose (10 mg/kg)): 21.8 ± 2.80 h | MRT0-∞ (Rat plasma kinetics; medium dose (10 mg/kg)): 24.7 ± 4.71 h | Tmax (Rat plasma kinetics; medium dose (10 mg/kg)): 4.50 ± 1.22 h | Vd (Rat plasma kinetics; medium dose (10 mg/kg)): 82.8 ± 9.31 L/kg | t1/2 (Rat plasma kinetics; medium dose (10 mg/kg)): 18.8 ± 3.60 h | F (oral bioavailability) (Rat plasma kinetics; rat): 93.8% | IC50 (A431 cells): 0.775 ± 0.0767 µM | IC50 (SRC): 0.0658 µM | IC50 (HT29 cells): 5.4 ± 0.813 µM | IC50 (HCT116 cells): 1.42 ± 0.236 µM | RTV ±SD ([5]; 12.5 mg/kg): 11.2±4.7 | T/C ([5]; 12.5 mg/kg): 54.6% | Terminal Tumor Volume ([5]; 12.5 mg/kg): 1860.7±1044.5 mm^3 | RTV ±SD ([5]; 25 mg/kg): 8.7±5.9 | T/C ([5]; 25 mg/kg): 42.6% | Terminal Tumor Volume ([5]; 25 mg/kg): 1329.3±1001.3* mm^3 | RTV ±SD ([5]; 50 mg/kg): 5.7±3.1 | T/C ([5]; 50 mg/kg): 27.7% | Terminal Tumor Volume ([5]; 50 mg/kg): 879.7±405.8** mm^3 | IC50 (MDA-MB-231 cells; read-out: IC50): 10 to 100 µM | IC50 (MDA-MB-231 cells; read-out: IC50, proliferation): 10.3 ± 2.01 µM | IC50 (A375 cells): 0.716 ± 0.154 µM

From PMC11868595, “Safety, pharmacokinetics and efficacy of HA121-28 in patients with advanced solid tumors and RET fusion-positive non-small-cell lung cancer: a multicenter, open-label, single-arm phase 1/2 trial” (Signal Transduction and Targeted Therapy, 2025)
